What was measured:
Assay type in all cases: cell-based
[1] = system: Xanthomona campestris; test: Growth inhibition assay at different concentrations of peptide rAp-S (specific growth rate, OD600); conditions: control 0.385
Protocol: (§1) Growth Inhibition Assays at Different Concentrations of Peptide rAp-S: The inoculation of 5 mL of LB was performed with 100 μL of bacteria (Xanthomona campestris and Clavibacter michiganensis), followed by overnight culturing. The absorbance was quantified at OD600. Once the Abs was quantified, dilutions were made to obtain an Abs to inoculate each tube with the same concentration of bacteria with an initial OD600 of 0.04. Different peptide concentrations were used. A final volume of 10 mL in a 50 mL tube was used. In addition, a control without peptide was used for each bacterium. The kinetics of the process was followed for 8 h from time zero, determining the Abs every 2 h. The data were logarithmically transformed for the exponential phase of kinetics, and a linear regression was performed on the transformed data. The slope of the regression is the specific growth rate of the bacteria: μ (h^−1).

[2] = system: Clavibacter michiganensis; test: as above; conditions: control 0.072
Protocol: as §1

[3] = system: Botrytis cinerea; test: Antifungal growth assay on PDA agar supplemented with peptide (spore count, mycelium area); conditions: respectively
Protocol: (§2) a) Evaluation of Peptides obtained in E coli: Isolates from Botrytis cinerea, Fusarium oxysporum, Trichoderma harzianum and Alternaria spp. were treated with the purified fractions of the digested and non-digested peptides (pre-TEV/rAp-S and rAp-S) derived from the selected recombinant clone of E. coli (Example 3).
(§3) The potential antifungal abilities of both peptides were evaluated by analysis of the growth patterns of these fungi on agar PDA (potato-dextrose) in Petri dishes supplemented with protein extracts at 500 μg/L (162 nM) and 250 μg/L (81 nM), respectively.
(§4) The control growth assays were performed on PDA dishes without peptides. The growth patterns were evaluated according the amount of time required for the fungi to reach the dish walls in the control plates (10 days after inoculation in darkness at room temperature). Structural images of the fungi hyphae patterns were obtained using a Olympus® microscope (Center Valley, Pa., USA), and spores were counted using a Neubauer […] (Brand®, Wertheim, Germany) at 40×. The data were subjected to analyses of variance, and averages were separated by the least significant difference test (LSD) at the 5% level of significance using Statgraphics Centurion XV (Manμistics Inc., Rockville, Md., USA). Petri dishes containing grown fungi were scanned and digitalized for statistical processing. The area of the mycelia was quantified using Gel-Pro Analyzer 4.0 (Media Cybernetics, Minneapolis, Minn., USA), and surface values in pixels were transferred to Excel (Microsoft Corporation, USA) for analysis. The average value of the colored haloes was calculated using scanned images of five repetitions on the tenth day after inoculation. The collected data were subjected to variance analysis, and the averages separated by LSD at the 5% level of significance.

[4] = system: Alternaria sp; test: as above; conditions: respectively
Protocol: as §2, §3, §4

[5] = system: Trichoderma harzianum; test: as above; conditions: respectively
Protocol: as §2, §3, §4

[6] = system: Fusarium oxysporum; test: as above; conditions: respectively
Protocol: as §2, §3, §4

[7] = PDA supplemented with pre-TEV/rAp-S 500 μg/L (162 nM) and rAp-S 250 μg/L (81 nM), 10 days after inoculation
[8] = PDA supplemented with pre-TEV/rAp-S 500 μg/L and rAp-S 250 μg/L, tenth day after inoculation

**Q.** How did the “Specific growth rate μ” value ([1]; peptide 1 μg/L) turn out when “rAp-S: recombinant version of antimicrobial peptide Ap-S, 31 amino acids MPVGIVIAPKKSPFTAKKPGPVLSGVKAGPG (SEQ ID No. 9), released by TEV protease digestion (listed as Argopecten purpuratus)” was run?
**A.** The value was 0.371 h⁻¹.

**Q.** What about the “Specific growth rate μ” value ([1]; peptide 10 μg/L) of the same substance?
**A.** Its value is 0.375 h⁻¹.

**Q.** What about the “Specific growth rate μ” value ([1]; peptide 100 μg/L) of the same substance?
**A.** Its value is 0.386 h⁻¹.

**Q.** What about the “Specific growth rate μ” value ([1]; peptide 1 mg/L) of the same substance?
**A.** Its value is 0.329 h⁻¹.

**Q.** What about the “Specific growth rate μ” value ([1]; peptide 2 mg/L) of the same substance?
**A.** The value was 0.015 h⁻¹.

**Q.** And the “Specific growth rate μ” value ([1]; peptide 3 mg/L)?
**A.** The value was -0.012 h⁻¹.

**Q.** What about the “Specific growth rate μ” value ([1]; peptide 4 mg/L) of the same substance?
**A.** Its value is -0.019 h⁻¹.

**Q.** And the “Specific growth rate μ” value ([2]; peptide 1 μg/L)?
**A.** Its value is 0.070 h⁻¹.

**Q.** What about the “Specific growth rate μ” value ([2]; peptide 10 μg/L) of the same substance?
**A.** Its value is 0.069 h⁻¹.

**Q.** What about the “Specific growth rate μ” value ([2]; peptide 100 μg/L) of the same substance?
**A.** Its value is 0.075 h⁻¹.

**Q.** What about the “Specific growth rate μ” value ([2]; peptide 1 mg/L) of the same substance?
**A.** The value was 0.069 h⁻¹.

**Q.** What about the “Specific growth rate μ” value ([2]; peptide 2 mg/L) of the same substance?
**A.** The value was 0.069 h⁻¹.

**Q.** What about the “Specific growth rate μ” value ([2]; peptide 3 mg/L) of the same substance?
**A.** The value was 0.073 h⁻¹.

**Q.** What about the “Specific growth rate μ” value ([2]; peptide 4 mg/L) of the same substance?
**A.** The value was 0.066 h⁻¹.

**Q.** And the “Specific growth rate μ” value ([2]; peptide 12.5 mg/L)?
**A.** The value was 0.009 h⁻¹.

**Q.** What about the “Specific growth rate μ” value ([2]; peptide 15.5 mg/L) of the same substance?
**A.** The value was 0.003 h⁻¹.

**Q.** And the “Spore count, Average” value [3, 7]?
**A.** The value was 1.02 × 10^6.

**Q.** What about the “Central area of the mycelium, Average” value [3, 8] of the same substance?
**A.** The value was 170781 pixeles.

**Q.** What about the “Spore count, Average” value [4, 7] of the same substance?
**A.** Its value is 0.

**Q.** And the “Central area of the mycelium, Average” value [4, 8]?
**A.** The value was 412403 pixeles.

**Q.** What about the “Spore count, Average” value [5, 7] of the same substance?
**A.** Its value is 5.0 × 10^6.

**Q.** What about the “Central area of the mycelium, Average” value [5, 8] of the same substance?
**A.** The value was 85718 pixeles.

**Q.** And the “Spore count, Average” value [6, 7]?
**A.** Its value is 7.6 × 10^5.

**Q.** And the “Central area of the mycelium, Average” value [6, 8]?
**A.** Its value is 511699 pixeles.

— US10597430B2, “Chimeric gene for heterologous expression which encodes for peptides with antimicrobial activity” (Instituto de Investigaciones Agropecuarias, priority 2013, dated 2020)
